From patent US10532980B2, “N-methyl pyrazoles” (Prosetta Antiviral, Inc., priority 2015, dated 2020)

Test system: Influenza A virus (A/WSN/1933(H1N1))
Experiment: microbe, parasite or virus in culture
Type: cell-based
Conditions: MDCK, 24 h with compound, then 2 h drug-free medium

How did the EC90 turn out when `Cn1nc(C(C)(C)C)cc1C(=O)NCc1cc(Cl)c2c(c1)OCCCO2` [Compound 45, 3-(tert-butyl)-N-((9-chloro-3,4-dihydro-2H-benzo[b][1,4]dioxepin-7-yl)methyl)-1-methyl-1H-pyrazole-5-carboxamide] was run?
The EC90 was 1000 nM.

For `COc1ccc(F)c(CNC(=O)c2cc(C(C)(C)C)nn2C)c1OC` [Compound 46, 3-(tert-butyl)-N-(6-fluoro-2,3-dimethoxybenzyl)-1-methyl-1H-pyrazole-5-carboxamide], which EC90 is on record?
Its EC90 is 1000 nM.
